Each structure is given as a SMILES string.

The test system of the experiment is IL-2 secretion by Jurkat T cells. Nature of the experiment: Inhibition of IL-2 secretion. Type of experiment: cell-based. As to conditions: Homo sapiens; Jurkat T cells stimulated with PHA, 20 to 24 hours, IL-2 by ELISA. Here is the method: The CRAC channel modulatory activity of the compounds were thus evaluated by measuring the secretion of IL-2 by antigen stimulated T-cells in vitro. Alternatively, such activity can also be evaluated by assay methods known to one skilled in the art.
Inhibition of IL-2 secretion: Jurkat T cells were seeded at a density of 0.5 to 1 million cells per well in RPMI medium. Test compounds from this invention were added to the cells at different concentrations. This was followed by the addition of PHA, a T cell mitogen after 10 minutes. The cells were then incubated for 20 to 24 hours in a CO2 incubator at 37° C. After incubation with the compounds, cells were centrifuged, the supernatant was collected and processed for ELISA to quantitate the amount of IL-2 secreted. A commercial ELISA kit (R&D Systems, Inc. Minneapolis, Minn., USA) was used to estimate the IL-2 concentrations. Amount of IL-2 secreted by cells stimulated with PHA was considered as a 100% maximal signal and the decrease in amount of IL-2 secreted by cells treated with the test compounds was expressed as percent inhibition of the maximal signal. The dose response data was analyzed using 4-parametric sigmoidal dose response (variable slope) curve—fit.
The IC50 is the concentration needed to halve the response being measured. A high value points to lower potency. `Cc1cc(-c2nn(C)c(=O)o2)cc(-c2ccc(NC(=O)c3c(F)cccc3F)cc2)n1` [Example 23, 2,6-Difluoro-N-(4-(6-methyl-4-(4-methyl-5-oxo-4,5-dihydro-1,3,4-oxadiazol-2-yl)pyridin-2-yl)phenyl)benzamide] came in with a half-maximal inhibitory concentration (IC50) of over 1000 nM. The value for `CCc1c(-c2nn(C)c(=O)o2)ccnc1-c1ccc(C(=O)Nc2c(F)cccc2F)cc1` [Example 19, N-(2,6-Difluorophenyl)-4-(3-ethyl-4-(4-methyl-5-oxo-4,5-dihydro-1,3,4-oxadiazol-2-yl)pyridin-2-yl)benzamide] was over 1000 nM; that for `CCc1ncc(-c2nn(C)c(=O)o2)cc1-c1ccc(NC(=O)c2snnc2C)cc1` [Example 49, N-(4-(2-Ethyl-5-(4-methyl-5-oxo-4,5-dihydro-1,3,4-oxadiazol-2-yl)pyridin-3-yl)phenyl)-4-methyl-1,2,3-thiadiazole-5-carboxamide] was 100 to 1000 nM. The compound `CCc1ncc(-c2nn(C)c(=O)o2)cc1-c1ccc(NCc2c(F)cccc2F)nc1` [Example 41A, 5-(6′-((2,6-Difluorobenzyl)amino)-2-ethyl-[3,3′-bipyridin]-5-yl)-3-methyl-1,3,4-oxadiazol-2(3H)-one] displayed an IC50 of over 1000 nM.

In the case of `Cc1cnccc1NC(=O)c1ccc(-c2cc(-c3nn(C)c(=O)o3)cnc2C2CC2)s1` [Example 43, 5-(2-Cyclopropyl-5-(4-methyl-5-oxo-4,5-dihydro-1,3,4-oxadiazol-2-yl)pyridin-3-yl)-N-(3-methylpyridin-4-yl)thiophene-2-carboxamide], the IC50 is under 100 nM. In turn, `Cc1ncc(-c2nn(C)c(=O)o2)cc1-c1ccc(NC(=O)c2c(F)cccc2F)cc1` [Example 1, 2,6-Difluoro-N-(4-(2-methyl-5-(4-methyl-5-oxo-4,5-dihydro-1,3,4-oxadiazol-2-yl)pyridin-3-yl)phenyl)benzamide] showed an IC50 of 100 to 1000 nM.

Compound `Cc1cc(NC(=O)c2c(F)cccc2F)ccc1-c1cc(-c2nn(C)c(=O)o2)cnc1C1CC1` [Example 32, N-(4-(2-Cyclopropyl-5-(4-methyl-5-oxo-4,5-dihydro-1,3,4-oxadiazol-2-yl)pyridin-3-yl)-3-methylphenyl)-2,6-difluorobenzamide] returned an IC50 of under 100 nM. For `CCc1ncc(-c2nn(C)c(=O)o2)cc1-c1ccc(NC(=O)c2ccncc2C)cc1` [Example 51, N-(4-(2-Ethyl-5-(4-methyl-5-oxo-4,5-dihydro-1,3,4-oxadiazol-2-yl)pyridin-3-yl)phenyl)-3-methylisonicotinamide], the IC50 was over 1000 nM. The value for `Cn1nc(-c2cnc(C3CC3)c(-c3ccc(NC(=O)c4c(F)cccc4F)cc3)c2)oc1=O` [Example 4, N-(4-(2-Cyclopropyl-5-(4-methyl-5-oxo-4,5-dihydro-1,3,4-oxadiazol-2-yl)pyridin-3-yl)phenyl)-2,6-difluorobenzamide] was under 100 nM; that for `Cn1nc(-c2cc(-c3ccc(NC(=O)c4c(F)cccc4F)cc3)ccn2)oc1=O` [Example 26, 2,6-Difluoro-N-(4-(2-(4-methyl-5-oxo-4,5-dihydro-1,3,4-oxadiazol-2-yl)pyridin-4-yl)phenyl)benzamide] was over 1000 nM; that for `Cn1nc(-c2cnc(C(F)(F)F)c(-c3ccc(NC(=O)c4c(F)cccc4F)cn3)c2)oc1=O` [Example 39, 2,6-Difluoro-N-(5′-(4-methyl-5-oxo-4,5-dihydro-1,3,4-oxadiazol-2-yl)-2′-(trifluoromethyl)-[2,3′-bipyridin]-5-yl)benzamide] was 100 to 1000 nM. The result for `Cn1nc(-c2cnc(C3CC3)c(-c3ccc(C(=O)Nc4c(F)cccc4F)o3)c2)oc1=O` [Example 45, 5-(2-Cyclopropyl-5-(4-methyl-5-oxo-4,5-dihydro-1,3,4-oxadiazol-2-yl)pyridin-3-yl)-N-(2,6-difluorophenyl)furan-2-carboxamide] reads over 1000 nM; that for `Cn1nc(-c2cnc(C3CC3)c(-c3ccc(C(=O)Nc4c(F)cccc4F)cc3)c2)oc1=O` [Example 5, 4-(2-cyclopropyl-5-(4-methyl-5-oxo-4,5-dihydro-1,3,4-oxadiazol-2-yl)pyridin-3-yl)-N-(2,6-difluorophenyl)benzamide], 100 to 1000 nM. In the case of `CCc1c(-c2ccc(C(=O)Nc3c(F)cccc3F)cc2)cncc1-c1nn(C)c(=O)o1` [Example 17, N-(2,6-Difluorophenyl)-4-(4-ethyl-5-(4-methyl-5-oxo-4,5-dihydro-1,3,4-oxadiazol-2-yl)pyridin-3-yl)benzamide], the IC50 was over 1000 nM. `Cc1cc(NC(=O)c2c(F)cccc2F)ccc1-c1cncc(-c2nn(C)c(=O)o2)c1` [Example 15, 2,6-Difluoro-N-(3-methyl-4-(5-(4-methyl-5-oxo-4,5-dihydro-1,3,4-oxadiazol-2-yl)pyridin-3-yl)phenyl)benzamide] had an IC50 of under 100 nM. Take `CCc1ncc(-c2nn(C)c(=O)o2)cc1-c1cc(C)c(NC(=O)c2c(F)cccc2F)cn1` [Example 41B, N-(2′-Ethyl-4-methyl-5′-(4-methyl-5-oxo-4,5-dihydro-1,3,4-oxadiazol-2-yl)-[2,3′-bipyridin]-5-yl)-2,6-difluorobenzamide]: the IC50 was in the range of 100 to 1000 nM. Take `CCc1ncc(-c2nn(C)c(=O)o2)cc1-c1ccc(NC(=O)c2c(F)cncc2F)cc1` [Example 46, N-(4-(2-Ethyl-5-(4-methyl-5-oxo-4,5-dihydro-1,3,4-oxadiazol-2-yl)pyridin-3-yl)phenyl)-3,5-difluoroisonicotinamide]: the IC50 is 100 to 1000 nM. Compound `CCc1ncc(-c2nn(C)c(=O)o2)cc1-c1ccc(NC(=O)c2c(F)cccc2Cl)cc1` [Example 48, 2-Chloro-N-(4-(2-ethyl-5-(4-methyl-5-oxo-4,5-dihydro-1,3,4-oxadiazol-2-yl)pyridin-3-yl)phenyl)-6-fluorobenzamide] returned an IC50 of 100 to 1000 nM. The value for `Cn1nc(-c2cnc(C(F)(F)F)c(-c3ccc(NC(=O)c4c(F)cccc4F)nc3)c2)oc1=O` [Example 38, 2,6-Difluoro-N-(5′-(4-methyl-5-oxo-4,5-dihydro-1,3,4-oxadiazol-2-yl)-2′-(trifluoromethyl)-[3,3′-bipyridin]-6-yl)benzamide] was 100 to 1000 nM; that for `CCc1ncc(-c2nn(C)c(=O)o2)cc1-c1cnc(NC(=O)c2c(F)cccc2Cl)cn1` [Example 54, 2-Chloro-N-(5-(2-ethyl-5-(4-methyl-5-oxo-4,5-dihydro-1,3,4-oxadiazol-2-yl)pyridin-3-yl)pyrazin-2-yl)-6-fluorobenzamide] was under 100 nM; that for `CCc1ncc(-c2nn(C)c(=O)o2)cc1-c1ccc(C(=O)Nc2c(F)cccc2F)n1C` [Example 63, N-(2,6-Difluorophenyl)-5-(2-ethyl-5-(4-methyl-5-oxo-4,5-dihydro-1,3,4-oxadiazol-2-yl)pyridin-3-yl)-1-methyl-1H-pyrrole-2-carboxamide] was over 1000 nM. In turn, `CCc1ncc(-c2nn(C)c(=O)o2)cc1-c1ccc(C(=O)Nc2c(F)cccc2F)s1` [Example 57, N-(2,6-Difluorophenyl)-5-(2-ethyl-5-(4-methyl-5-oxo-4,5-dihydro-1,3,4-oxadiazol-2-yl)pyridin-3-yl)thiophene-2-carboxamide] yielded an IC50 of under 100 nM. For `CCc1ncc(-c2nn(C)c(=O)o2)cc1-c1cnc(NC(=O)c2c(F)cccc2F)cc1C` [Example 41], the IC50 was under 100 nM. For the compound `Cc1cc(-c2nn(C)c(=O)o2)ncc1-c1ccc(NC(=O)c2c(F)cccc2F)cc1` [Example 27, 2,6-Difluoro-N-(4-(4-methyl-6-(4-methyl-5-oxo-4,5-dihydro-1,3,4-oxadiazol-2-yl)pyridin-3-yl)phenyl)benzamide], the IC50 fell in the range of 100 to 1000 nM. `CCc1ncc(-c2nn(C)c(=O)o2)cc1-c1ccc(NC(=O)c2c(F)cccc2F)cc1C` [Example 29, N-(4-(2-Ethyl-5-(4-methyl-5-oxo-4,5-dihydro-1,3,4-oxadiazol-2-yl)pyridin-3-yl)-3-methylphenyl)-2,6-difluorobenzamide] showed a half-maximal inhibitory concentration (IC50) of under 100 nM. In the case of `Cn1nc(-c2cnc(C3CC3)c(-c3cnc(NC(=O)c4c(F)cccc4F)cn3)c2)oc1=O` [Example 33, N-(5-(2-Cyclopropyl-5-(4-methyl-5-oxo-4,5-dihydro-1,3,4-oxadiazol-2-yl)pyridin-3-yl)pyrazin-2-yl)-2,6-difluorobenzamide], the half-maximal inhibitory concentration (IC50) was under 100 nM. Turning to `CNc1ncc(-c2nn(C)c(=O)o2)cc1-c1ccc(NC(=O)c2c(F)cccc2F)cc1C` [Example 13, 2,6-Difluoro-N-(3-methyl-4-(5-(4-methyl-5-oxo-4,5-dihydro-1,3,4-oxadiazol-2-yl)-2-(methylamino)pyridin-3-yl)phenyl)benzamide], the IC50 lay within 100 to 1000 nM.

For `CNc1ncc(-c2nn(C)c(=O)o2)cc1-c1ccc(NC(=O)c2c(C)cccc2F)cc1` [Example 12, 2-Fluoro-6-methyl-N-(4-(5-(4-methyl-5-oxo-4,5-dihydro-1,3,4-oxadiazol-2-yl)-2-(methylamino)pyridin-3-yl)phenyl)benzamide], the IC50 is under 100 nM.

The compound `CCc1c(-c2ccc(NC(=O)c3c(F)cccc3F)cc2)cncc1-c1nn(C)c(=O)o1` [Example 16, N-(4-(4-Ethyl-5-(4-methyl-5-oxo-4,5-dihydro-1,3,4-oxadiazol-2-yl)pyridin-3-yl)phenyl)-2,6-difluorobenzamide] came in with an IC50 of 100 to 1000 nM. `COc1ncc(-c2nn(C)c(=O)o2)cc1-c1ccc(NC(=O)c2c(F)cccc2F)cc1` [Example 6, 2,6-Difluoro-N-(4-(2-methoxy-5-(4-methyl-5-oxo-4,5-dihydro-1,3,4-oxadiazol-2-yl)pyridin-3-yl)phenyl)benzamide] had an IC50 of under 100 nM.

The record behind these values is US9399638B2, “Substituted pyridine compounds as CRAC modulators” (LUPIN LIMITED, priority 2012, dated 2016).
